Molecules are shown by their SMILES. pIC50: −log10 of the molar value. Peptide text beside a SMILES is read from it. * marks the point of attachment. Tos = Cc1ccc(S(=O)(=O)*)cc1

Tested on in the first series: not listed separately
The series can be described thus: Metabolic stability in human liver microsome at 8 uM after 1 hr. It counts as ADME. The note with it: liver microsomes, read-out: Stability.
`O=C(O)[C@H](Cc1ccc(OCc2c(Cl)cccc2Cl)cc1)NC(=O)[C@@H]1OCO[C@H]1C(=O)Nc1nccs1`: the remaining at 1 h, 8 µM was determined as 52%.
For `O=C(O)[C@H](Cc1ccc(OCc2c(Cl)cccc2Cl)cc1)NC(=O)[C@@H]1OCO[C@H]1C(=O)NC1CC1`, the remaining at 1 h, 8 µM was 72%.

The target of another series is T1, Integrin alpha-4 (Homo sapiens, UniProt P13612).
T1 sequence (P13612 whole entry): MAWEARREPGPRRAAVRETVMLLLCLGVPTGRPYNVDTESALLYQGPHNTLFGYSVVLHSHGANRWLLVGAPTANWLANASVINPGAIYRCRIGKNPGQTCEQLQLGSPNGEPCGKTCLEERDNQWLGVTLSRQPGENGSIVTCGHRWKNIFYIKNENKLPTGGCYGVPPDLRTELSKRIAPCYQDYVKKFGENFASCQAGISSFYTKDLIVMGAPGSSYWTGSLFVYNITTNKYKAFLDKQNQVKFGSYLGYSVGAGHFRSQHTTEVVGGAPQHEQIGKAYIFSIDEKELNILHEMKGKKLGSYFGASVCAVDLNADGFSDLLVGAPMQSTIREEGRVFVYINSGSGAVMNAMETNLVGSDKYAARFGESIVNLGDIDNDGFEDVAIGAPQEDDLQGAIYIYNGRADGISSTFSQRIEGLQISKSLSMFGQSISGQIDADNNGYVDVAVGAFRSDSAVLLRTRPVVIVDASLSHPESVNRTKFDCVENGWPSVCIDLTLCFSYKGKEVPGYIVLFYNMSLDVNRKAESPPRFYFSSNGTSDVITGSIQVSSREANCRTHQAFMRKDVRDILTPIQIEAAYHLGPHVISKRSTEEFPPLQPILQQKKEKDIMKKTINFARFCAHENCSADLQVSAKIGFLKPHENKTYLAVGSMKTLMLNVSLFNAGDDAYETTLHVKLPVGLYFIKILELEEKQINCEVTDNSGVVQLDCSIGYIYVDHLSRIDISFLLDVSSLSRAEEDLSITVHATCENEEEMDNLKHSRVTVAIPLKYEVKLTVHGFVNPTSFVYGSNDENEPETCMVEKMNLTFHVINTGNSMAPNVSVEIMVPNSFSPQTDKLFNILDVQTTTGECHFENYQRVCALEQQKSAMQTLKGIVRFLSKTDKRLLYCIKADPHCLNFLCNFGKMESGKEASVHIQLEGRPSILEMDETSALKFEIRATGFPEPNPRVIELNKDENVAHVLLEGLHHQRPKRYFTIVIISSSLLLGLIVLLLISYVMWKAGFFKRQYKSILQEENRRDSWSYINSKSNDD
Put plainly: Displacement of VCAM1 from VLA4 receptor in human U937 cells. It counts as cell-based, U-937.
Conditions: not given
On to `O=C(O)[C@H](Cc1ccc(OCc2c(Cl)cccc2Cl)cc1)NC(=O)[C@@H]1OCO[C@H]1C(=O)Nc1nc2ccccc2s1`, for which the pIC50 is 6.22.
Still for that read-out and setting: as for `CNC(=O)[C@@H]1OCO[C@H]1C(=O)N[C@@H](Cc1ccc(OCc2c(Cl)cccc2Cl)cc1)C(=O)O`, the figure is 5.92; as for `O=C(O)[C@H](Cc1ccc(OCc2c(Cl)cccc2Cl)cc1)NC(=O)[C@@H]1OCO[C@H]1C(=O)Nc1nccs1`, 6.70; as for `O=C(O)[C@H](Cc1ccc(OCc2c(Cl)cccc2Cl)cc1)NC(=O)[C@@H]1OCO[C@H]1C(=O)NCc1ccc2c(c1)OCO2`, 5.52.
With `O=C(O)[C@H](Cc1ccc(OCc2c(Cl)cccc2Cl)cc1)NC(=O)[C@@H]1OCO[C@H]1C(=O)NCc1cccs1`, the pIC50 is 6.15.
Take `O=C(Nc1ccc(C[C@H](NC(=O)[C@@H]2OCO[C@H]2C(=O)Nc2ccccc2-c2ccccc2)C(=O)O)cc1)c1ccccc1`: the pIC50 is 5.05.
The same measure, in the same setting: as for `CCCCNC(=O)[C@@H]1OCO[C@H]1C(=O)N[C@@H](Cc1ccc(OCc2c(Cl)cccc2Cl)cc1)C(=O)O`, the figure is 5.82; as for `O=C(O)[C@H](Cc1ccc(OCc2c(Cl)cccc2Cl)cc1)NC(=O)[C@@H]1OCO[C@H]1C(=O)NC1CC1`, 6.52.
For `CCCCCCCNC(=O)[C@@H]1OCO[C@H]1C(=O)N[C@@H](Cc1ccc(OCc2c(Cl)cccc2Cl)cc1)C(=O)O`, the pIC50 is 5.36.
Turning to `Cc1ccc(-n2nc(C(C)(C)C)cc2NC(=O)[C@@H]2OCO[C@H]2C(=O)N[C@@H](Cc2ccc(OCc3c(Cl)cccc3Cl)cc2)C(=O)O)cc1`, the pIC50 was 5.59.
On the same count and under the same terms, to `O=C(O)[C@H](Cc1ccc(OCc2c(Cl)cccc2Cl)cc1)NC(=O)[C@@H]1OCO[C@H]1C(=O)N1CCOCC1` belongs 5.47; to `O=C(Nc1ccc(C[C@H](NC(=O)[C@@H]2OCO[C@H]2C(=O)Nc2ccccc2-c2ccccc2)C(=O)O)cc1)c1cc(Cl)nc(Cl)c1`, 5.20.
Compound `CCNC(=O)[C@@H]1OCO[C@H]1C(=O)N[C@@H](Cc1ccc(OCc2c(Cl)cccc2Cl)cc1)C(=O)O` gave a pIC50 of 5.68.
On the same count and under the same terms, to `O=C(Nc1ccc(C[C@H](NC(=O)[C@@H]2OCO[C@H]2C(=O)Nc2ccccc2-c2ccccc2)C(=O)O)cc1)c1ccccn1` belongs 5.08.
On the same count and under the same terms, as for `O=C(O)[C@H](Cc1ccc(OCc2c(Cl)cccc2Cl)cc1)NC(=O)[C@@H]1OCO[C@H]1C(=O)Nc1c(Cl)cccc1Cl`, the figure is 6.15; as for `CC(C)CCNC(=O)[C@@H]1OCO[C@H]1C(=O)N[C@@H](Cc1ccc(OCc2c(Cl)cccc2Cl)cc1)C(=O)O`, 5.96.
Still for that read-out and setting: to `O=C(O)[C@H](Cc1ccc(OCc2c(Cl)cccc2Cl)cc1)NC(=O)[C@@H]1OCO[C@H]1C(=O)Nc1ccc(Cl)cc1` belongs 5.55; to `O=C(O)[C@H](Cc1ccc(OCc2c(Cl)cccc2Cl)cc1)NC(=O)[C@@H]1OCO[C@H]1C(=O)Nc1ccccc1-c1ccccc1`, 6.30; to `CC(C)(C)NC(=O)[C@@H]1OCO[C@H]1C(=O)N[C@@H](Cc1ccc(OCc2c(Cl)cccc2Cl)cc1)C(=O)O`, 5.92.
For the compound `O=C(Nc1ccc(C[C@H](NC(=O)[C@@H]2OCO[C@H]2C(=O)Nc2ccccc2-c2ccccc2)C(=O)O)cc1)c1c(Cl)cccc1Cl`, the pIC50 was 7.00.
Take `COc1ccccc1C(=O)Nc1ccc(C[C@H](NC(=O)[C@@H]2OCO[C@H]2C(=O)Nc2ccccc2-c2ccccc2)C(=O)O)cc1`: the pIC50 was 5.20.
For `O=C(O)[C@H](Cc1ccc(OCc2c(Cl)cccc2Cl)cc1)NC(=O)[C@@H]1OCO[C@H]1C(=O)Nc1ccccc1C(F)(F)F`, the pIC50 is 6.05.
The same measure, in the same setting: to `Cc1nnc(NC(=O)[C@@H]2OCO[C@H]2C(=O)N[C@@H](Cc2ccc(OCc3c(Cl)cccc3Cl)cc2)C(=O)O)s1` belongs 5.82; to `O=C(O)[C@H](Cc1ccc(OCc2c(Cl)cccc2Cl)cc1)NC(=O)[C@@H]1OCO[C@H]1C(=O)Nc1ccccc1F`, 6.22; to `O=C(Nc1ccc(C[C@H](NC(=O)[C@@H]2OCO[C@H]2C(=O)Nc2ccccc2-c2ccccc2)C(=O)O)cc1)c1cccnc1`, 5.02.
Same read-out and setting: to `O=C(O)[C@H](Cc1ccc(OCc2c(F)cccc2F)cc1)NC(=O)[C@@H]1OCO[C@H]1C(=O)Nc1ccccc1-c1ccccc1` belongs 5.10.
Still for that read-out and setting: as for `O=C(O)[C@H](Cc1ccc(OCc2c(Cl)cccc2Cl)cc1)NC(=O)[C@@H]1OCO[C@H]1C(=O)NC1CCCCC1`, the figure is 5.85; as for `O=C(O)[C@H](Cc1ccc(OCc2c(Cl)cccc2Cl)cc1)NC(=O)[C@@H]1OCO[C@H]1C(=O)NCCc1c[nH]c2ccccc12`, 6.22.
`O=C(O)[C@H](Cc1ccc(OCc2ccccc2Cl)cc1)NC(=O)[C@@H]1OCO[C@H]1C(=O)Nc1ccccc1-c1ccccc1` showed a pIC50 of 5.06.
On the same count and under the same terms, to `O=C(O)[C@H](Cc1ccc(OCc2c(Cl)cccc2Cl)cc1)NC(=O)[C@@H]1OCO[C@H]1C(=O)Nc1ccccc1` belongs 5.82.
For the compound `CN(C)C(=O)[C@@H]1OCO[C@H]1C(=O)N[C@@H](Cc1ccc(OCc2c(Cl)cccc2Cl)cc1)C(=O)O`, the pIC50 was 5.82.
`CC(C)(C)c1cc(NC(=O)[C@@H]2OCO[C@H]2C(=O)N[C@@H](Cc2ccc(OCc3c(Cl)cccc3Cl)cc2)C(=O)O)n(Cc2ccccc2)n1` gave a pIC50 of 6.00.
The same measure, in the same setting: as for `CC(C)NC(=O)[C@@H]1OCO[C@H]1C(=O)N[C@@H](Cc1ccc(OCc2c(Cl)cccc2Cl)cc1)C(=O)O`, the figure is 5.18; as for `O=C(O)[C@H](Cc1ccc(OCc2c(Cl)cccc2Cl)cc1)NC(=O)[C@@H]1OCO[C@H]1C(=O)Nc1c(Cl)cncc1Cl`, 6.40; as for `COc1ccccc1NC(=O)[C@@H]1OCO[C@H]1C(=O)N[C@@H](Cc1ccc(OCc2c(Cl)cccc2Cl)cc1)C(=O)O`, 6.22.
Same read-out and setting: to `O=C(O)[C@H](Cc1ccc(OCc2c(Cl)cccc2Cl)cc1)NC(=O)[C@@H]1OCO[C@H]1C(=O)Nc1ccccc1Cl` belongs 6.15; to `O=C(Nc1ccc(C[C@H](NC(=O)[C@@H]2OCO[C@H]2C(=O)Nc2ccccc2-c2ccccc2)C(=O)O)cc1)c1ccncc1`, 5.57.
The compound `O=C(O)[C@H](Cc1ccc(OCc2c(Cl)cccc2Cl)cc1)NC(=O)[C@@H]1OCO[C@H]1C(=O)Nc1c(F)cccc1F` gave a pIC50 of 6.30.

Tested on in another series: not listed separately
Put plainly: Oral bioavailability in rat. In kind it is ADME, organism-based. Conditions: in vivo.
As for `Cc1ccc(S(=O)(=O)N2CCC[C@H]2C(=O)N[C@@H](Cc2ccccc2)C(=O)O)cc1` (Tos-Pro-Phe-OH), the bioavailability is 10%.

(Values after ChEMBL document CHEMBL1221346, “Synthesis and biological activity of N-substituted aminocarbonyl-1,3-dioxolanes as VLA-4 antagonists” (Bioorg Med Chem Lett, 2010).)
